The target of assay [1] is RNA construct containing CUG repeats (RNA hairpin 1; SEQ ID NO:1). Briefly: MicroScale Thermophoresis (MST) fluorescence binding assay, RNA hairpin 1. As to conditions: RNA hairpin 1 (CUG repeats). As for the experimental part:
[The procedure below names another target; the source lists this target under the same test.] This direct binding was determined using a MicroScale Thermophoresis (MST) Fluorescence binding assays with Tideglusib and an RNA hairpin containing CUG repeats. […] MBNL1 has a well characterized role in myotonic dystrophy where impaired RNA splicing disrupts muscle development and function.
The method used for the MST fluorescence assay was as follows. A serial dilution of the ligand (Tideglusib) was prepared in a way to match the final buffer conditions in the reaction mix (assay buffer 20 mM HEPES pH 7.4, 0.05% Tween-20). The highest concentration of ligand was 500 μM and the lowest 15.3 nM. 5 μl of each dilution step were mixed with 5 μl of the fluorescent molecule. The final reaction mixture, which was filled in capillaries, contained a respective amount of ligand (max. conc. 250 μM, min. conc. 7.63 nM) and constant 50 nM fluorescent molecule. The samples were analyzed on a Monolith NT. 115 at 25° C., with 40% LED power and 40% Laser power. The fluorescence labeled RNA construct (RNA hairpin 2; produced by Metabion) had the following sequence: […]
Background: In MST a laser heats a spot of the sample, and binding alters the fluorescence response.

The target in assay [2] is RNA construct containing CUG repeats with interspersed interrupting non CUG repeats (RNA hairpin 3; SEQ ID NO:3). Description: MicroScale Thermophoresis (MST) fluorescence binding assay, RNA hairpin 3.
Another assay has as its system JNK (pJNK). Briefly: Phosphorylated JNK in lymphocytes from pediatric subjects with Autism Spectrum Disorder. The class given is in vivo, human. The settings on record: 12 weeks, titrated 400 mg to 1000 mg oral once per day, versus placebo.
Another assay concerns GSK3β. Description: GSK3β kinase protein levels in lymphocytes from treated Congenital Onset DM1 patients. Format: in vivo, human. As to conditions: 400 mg or 1000 mg po per day, six and twelve weeks of treatment. As for the experimental part:
(§1) Lymphocyte cell pellets were lysed in 150 μl of cold NP40 Cell Lysis Buffer with protease inhibitors. Total protein of each extract was measured with DC Protein assay Kit according to the manufacturer specifications. For the analysis of GSK3β and related kinases, the commercially available kits AKT Pathway Total Multispecies 7-Plex Panel and the equivalent for the phosphorylated forms for Luminex® Platform from Thermo Fisher Scientific were used. These were the AKT Pathway (Total) 7-Plex Multispecies Panel (#LHO0002M ThermoFisher Scientific) that assays the following signaling proteins: GSK3β, Total IR, IGF-1R, IRS-1, Akt, PRAS40 and p70s6K. The AKT Pathway (Phospho) 7-Plex Multispecies Panel (#LHO0001M ThermoFisher Scientific) assays the following signaling proteins: GSK3β[pS9], IR[pYpY1162/1163], IGF-1R[pYpY1135/1136], IRS-1[pS312], Akt[pS473], PRAS40[pT246] and p70s6K[pTpS421/424].

In assay [3] the test system is RNA construct containing CAG repeats (RNA hairpin 2; SEQ ID NO:2). Description: MicroScale Thermophoresis (MST) fluorescence binding assay, RNA hairpin 2. The settings on record: RNA hairpin 2 (CAG repeats). As for the experimental part: The method used for the MST fluorescence assay was as follows. A serial dilution of the ligand (Tideglusib) was prepared in a way to match the final buffer conditions in the reaction mix (assay buffer 20 mM HEPES pH 7.4, 0.05% Tween-20). The highest concentration of ligand was 500 μM and the lowest 15.3 nM. 5 μl of each dilution step were mixed with 5 μl of the fluorescent molecule. The final reaction mixture, which was filled in capillaries, contained a respective amount of ligand (max. conc. 250 μM, min. conc. 7.63 nM) and constant 50 nM fluorescent molecule. The samples were analyzed on a Monolith NT. 115 at 25° C., with 40% LED power and 40% Laser power. The fluorescence labeled RNA construct (RNA hairpin 2; produced by Metabion) had the following sequence:
Binding to other RNA trinucleotide repeats was investigated by repeating the experimental protocol above with an RNA repeat construct containing CAG repeats (RNA hairpin 2).

In a further assay the test system is patients having DM1. Description: Clinical Global Impression of Improvement in patients having DM1. Format: in vivo, human. The settings on record: patients having DM1, 400 mg or 1000 mg.
In a further assay the test system is ERK (pERK). Description: Phosphorylated ERK in lymphocytes from pediatric subjects with Autism Spectrum Disorder. As to conditions: 12 weeks, titrated 400 mg to 1000 mg oral once per day, versus placebo. The class given is in vivo, human.
The subject of assay [4] is phosphorylated Akt (pAkt). Description: Phosphorylated Akt (pAkt) levels in lymphocytes from treated Congenital Onset DM1 patients. The class given is in vivo, human. The settings on record: 400 mg or 1000 mg per day, six and twelve weeks of treatment. As for the experimental part: as §1, with “In order to determine whether the clinical benefit produced by administration of Tideglusib could be related to inhibition of GSK3β, the activity of this kinase in circulating tissues in treated patients was determined. Lymphocyte” for “Lymphocyte”, “IRS-1[[…]],” for “IRS-1[pS312],”, “PRAS40[[…]]” for “PRAS40[pT246]”, “[…]421/424].” for “p70s6K[pTpS421/424].”

Assay [5] has as its system phosphorylated Akt (pAkt). Description: Phosphorylated Akt in lymphocytes from pediatric subjects with Autism Spectrum Disorder. As to conditions: 12 weeks, titrated 400 mg to 1000 mg oral once per day, versus placebo, p<0.0001. The class given is in vivo, human. The procedure: as §1, with “In order to determine whether the clinical benefit produced by administration of Tideglusib could be related to inhibition of GSK3β, the activity of this kinase in circulating tissues in treated patients was determined. Lymphocyte” for “Lymphocyte”, “IRS-1[[…]],” for “IRS-1[pS312],”, “PRAS40[[…]]” for “PRAS40[pT246]”, “[…]421/424].” for “p70s6K[pTpS421/424].”

Structures are written as SMILES. “Also recorded” adds a separate entry of the source. Read-outs that look alike come from different tables or passages of the source.

Turning to `CCn1c(=O)sn(Cc2ccccc2)c1=O` [Compound 2, 2-Benzyl-4-ethyl-[1,2,4]thiadiazolidine-3,5-dione], the Kd in assay [1] (data not shown, read-out: KD) is 31.4 µM.
`O=c1sn(-c2cccc3ccccc23)c(=O)n1Cc1ccccc1` [Tideglusib, 4-Benzyl-2-naphthalen-1-yl-[1,2,4]thiadiazolidine-3,5-dione]: the Kd in assay [2] (RNA hairpin 3, CUG repeats with interrupting non CUG repeats, read-out: KD of binding) turned out to be 3.2 µM; in [2] (RNA hairpin 3, interspersed non CUG repeats (CCG and CUC), read-out: potency of binding), 3.2 µM; in assay [1] (MST, 25° C., read-out: KD of binding), 0.0197 µM. Besides, the “fold less potent binding versus RNA hairpin 1” value in assay [2] (RNA hairpin 3 versus RNA hairpin 1) was 162 fold. For the same compound, the “inhibition of phosphorylation of JNK in lymphocytes” value in the assay on JNK (pJNK) is recorded as “did not inhibit phosphorylation”. In addition, the “effect on GSK3β levels in lymphocytes” value was “Neither dose shows any effect” in the assay with GSK3β and “no effect” in the assay with GSK3β (listed as Compound 1). In addition, the “binding to CAG repeat RNA (in words)” value in [3] is “No reliable of binding”. In the assay on patients having DM1, the “clinical benefit, Clinical Global Impression of Improvement measurement scale” value is recorded as “majority of patients having DM1 treated with Tideglusib showed clinical benefit”. Also, the “inhibition of phosphorylation of ERK in lymphocytes” value in the assay on ERK (pERK) is given as “did not inhibit phosphorylation”. The results for the “effect on phosphorylated Akt (pAkt) levels in lymphocytes” value in [4] and in assay [4] (listed as Compound 1) were “not achieved; also recorded: unable overcome the phosphorylation of Akt” and “no effect”, respectively. In assay [5], the “inhibition of phosphorylation of Akt in lymphocytes” value is recorded as “reduces levels of phosphorylation of Akt; also recorded: inhibited phosphorylation of Akt”.
For the compound `O=C(NCc1ccccc1)Nc1cccc2ccccc12` [urea derivative of Tideglusib, 1-benzyl-3-naphthalen-1-yl-urea], the “binding to CUG repeat RNA (in words)” value is “no binding activity” in assay [1] (MST) and “No reliable binding” in assay [1] (MST, listed as main metabolite of Tideglusib).

The values above are taken from patent publication US20230241038A1, “METHOD OF TREATING RNA REPEAT MEDIATED DISEASES WITH RNA REPEAT BINDING COMPOUND” (AMO Pharma Ltd., priority 2021, published 2023).
